Reference: patent US20220133846A1, “NOVEL ANTIMICROBIAL COMPOUND AND USES THEREOF” (priority 2019, published 2022)
In brackets after ≈: the same amount, converted by molar mass. Several values for one entry are separate records, joined by “and”; a condition that tells them apart may be missing. Equal entries are not always repeated. Where two headings read alike, the source gives them in different places.

Key:
[1] = system: S. aureus NRS 384 (USA300-0114); assay: Murine neutropenic thigh infection model; type: in vivo, mice; details: 25 mg/kg, both studies
[2] = system: S. aureus (SA) and MRSA biofilms; type: cell-based
[3] = system: broad spectrum of Gram-positive bacteria; details: cited from earlier work
[4] = system: A. baumannii (CH-46); assay: Frequency of resistance (FoR) in vitro; type: cell-based
[5] = system: Acinetobacter modestus; assay: MIC against clinical isolates (Christiana Hospital); type: cell-based; details: clinical strain CH43, drug resistance N
[6] = system: Acinetobacter calcoaceticus; assay: as above; type: cell-based; details: clinical strain CH37, drug resistance N
[7] = system: Acinetobacter baumannii
[8] = system: Acinetobacter ursingii; assay: MIC against clinical isolates (Christiana Hospital); type: cell-based; details: clinical strain CH41, drug resistance N
[9] = system: Acinetobacter guillouiae; assay: as above; type: cell-based; details: clinical strain CH42, drug resistance N
[10] = system: Acinetobacter septicus; assay: as above; type: cell-based; details: clinical strain CH44, drug resistance N
[11] = system: Acinetobacter baumannii; assay: microbe, parasite or virus in culture
[12] = system: S. aureus; assay: Prevention of biofilm formation by pre-coating wells; type: cell-based; details: data not shown

With `CN[C@H](CC(C)C)C(=O)N[C@H]1C(=O)N[C@@H](CC(N)=O)C(=O)N[C@H]2C(=O)N[C@H]3C(=O)N[C@H](C(=O)N[C@H](C(=O)O)c4cc(O)cc(O)c4-c4cc3ccc4O)[C@H](O)c3ccc(c(Cl)c3)Oc3cc2cc(c3O[C@@H]2O[C@H](CO)[C@@H](O)[C@H](O)[C@H]2O[C@H]2C[C@](C)(N)[C@H](O)[C@H](C)O2)Oc2ccc(cc2Cl)[C@H]1O` [vancomycin, reference compound] the “Bacterial load relative to pre-treatment levels” value [1] was “reduced bacterial load to or below pre-treatment levels” and the “Effect on viability of pre-formed biofilm” value [2] was “not effective”.

For `C=C1NC(=O)CC[C@@H](C(=O)O)NC(=O)[C@H](NC(=O)[C@H](CCCCN)NC(=O)[C@@H](N)Cc2c[nH]c3ccccc23)CSC[C@@H](C(=O)N[C@@H]2C(=O)N3CCC[C@H]3C(=O)NCC(=O)N[C@H](C(=O)N[C@H](C(=O)N[C@@H]3C(=O)NCC(=O)N[C@@H](C)C(=O)N[C@@H](CC(C)C)C(=O)N[C@@H](CCC(N)=O)C(=O)N/C(=C/C)C(=O)N[C@H](C(=O)N[C@@H](Cc4ccccc4)C(=O)N[C@@H](CC(C)C)C(=O)N[C@@H](CCC(N)=O)C(=O)N[C@@H]4C(=O)N[C@@H](CC(C)C)C(=O)N[C@H]5C(=O)N[C@@H](CSC4C)C(=O)NC(=O)[C@H](CC(N)=O)N[C@H](C(=O)N[C@@H](CCCCN)C(=O)N[C@H](C(=O)NC(=C)C(=O)N[C@@H](CCCCN)C(=O)O)[C@@H](C)CC)CSC5C)CSC3C)C(C)C)CSC2C)N[C@@H](CC(C)C)C(=O)NC1=O` (some centres unmarked) [subtilin], the Antimicrobial activity [3] is given as “nanomolar range”.

With Colistin the “Frequency of resistance (FoR)” value ([4]; 2X MIC) was 2.7 × 10^−7, the “Frequency of resistance (FoR)” value ([4]; 3X MIC) was 3.7 × 10^−8 and the “Frequency of resistance (FoR)” value ([4]; 4X MIC) was 5.2 × 10^−8. For the same molecule, the “Frequency of resistance (FoR)” value ([4]; 5X MIC) was 5.4 × 10^−8, the “Frequency of resistance (FoR)” value ([4]; 10X MIC) was 2.0 × 10^−9 and the MIC [5] was 7.81 µg/mL. The MIC [6] was 3.91 µg/mL, the MIC [7] was 3.91 µg/mL and 5.86 µg/mL and 7.81 µg/mL and the MIC [8] was 1.95 µg/mL. It also gave an MIC [9] of 3.91 µg/mL and an MIC [10] of 1.95 µg/mL.

For `C[C@@H](O)[C@H]1C(=O)N2C(C(=O)O)=C(SCCN=CN)C[C@H]12` [Imipenem], the MIC ([11]; clinical strain CH36, drug resistance N) was 250 µg/mL (≈ 835 µM), the MIC ([11]; clinical strain CH38, drug resistance N) was 125 µg/mL (≈ 418 µM) and the MIC ([11]; clinical strain CH39, drug resistance N) was 15.6 µg/mL (≈ 52.2 µM). It also gave an MIC ([11]; clinical strain CH40, drug resistance N) of 31.2 µg/mL (≈ 104 µM), an MIC ([11]; clinical strain CH45, drug resistance Y) of 125 µg/mL (≈ 418 µM) and an MIC ([11]; clinical strain CH46, drug resistance Y) of 250 µg/mL (≈ 835 µM). For the same molecule, the MIC ([11]; clinical strain CH47, drug resistance Y) was 3.91 µg/mL (≈ 13.1 µM), the MIC ([11]; clinical strain CH48, drug resistance Y) was 7.81 µg/mL (≈ 26.1 µM) and the MIC ([11]; clinical strain CH49, drug resistance Y) was 62.5 µg/mL (≈ 209 µM). The MIC ([11]; clinical strain CH50, drug resistance Y) was 62.5 µg/mL (≈ 209 µM), the MIC ([11]; clinical strain CH51, drug resistance Y) was 31.2 µg/mL (≈ 104 µM) and the MIC ([11]; clinical strain CH52, drug resistance Y) was 31.2 µg/mL (≈ 104 µM). For the same molecule, the MIC ([11]; clinical strain CH53, drug resistance Y) was 31.2 µg/mL (≈ 104 µM), the MIC ([11]; clinical strain CH54, drug resistance Y) was 7.81 µg/mL (≈ 26.1 µM) and the MIC ([11]; clinical strain CH55, drug resistance Y) was 46.9 µg/mL (≈ 157 µM). It also gave an MIC ([5]; Acinetobacter modestus, read-out: MIC) of 0.5 µg/mL (≈ 1.67 µM), an MIC ([6]; Acinetobacter calcoaceticus, read-out: MIC) of 0.5 µg/mL (≈ 1.67 µM) and an MIC ([8]; Acinetobacter ursingii, read-out: MIC) of 1 µg/mL (≈ 3.34 µM). The MIC ([9]; Acinetobacter guillouiae, read-out: MIC) was 7.81 µg/mL (≈ 26.1 µM) and the MIC ([10]; Acinetobacter septicus, read-out: MIC) was 1.46 µg/mL (≈ 4.88 µM).

B1: platelet factor 4: a control cationic peptide (protein, UniProt P02776 32-101, looked up)
Platelet factor 4: EAEEDGDLQCLCVKTTSQVRPRHITSLEVIKAGPHCPTAQLIATLKNGRKICLDLQAPLYKKIIKKLLES
With B1 the “Effect of coating wells on S. aureus attachment” value [12] was “no effect”.
